Assay results from article PMC8765320, “Identification of a Proteasome-Targeting Arylsulfonamide with Potential for the Treatment of Chagas’ Disease” (Antimicrobial Agents and Chemotherapy, 2022).

Experiments:
[1] = test system: ubiquitinated proteins in T. cruzi epimastigotes; assay: Accumulation of ubiquitinated proteins in treated epimastigotes (LC-MS/MS); type: cell-based, Trypanosoma cruzi; conditions: epimastigotes pretreated 8 h at 3× EC50 (methods: 8× EC50); one biological replicate
Protocol: In cells where the function of the proteasome has been compromised, there is a concomitant build-up of ubiquitinated proteins earmarked for degradation. […] Control cultures were treated for the same period of time in the presence of dimethyl sulfoxide (DMSO). Enrichment of ubiquitinated proteins was achieved by immunoprecipitation using magnetic beads conjugated to an antibody specific for the remnant of ubiquitinated lysines following digestion with trypsin and/or LysC. We used liquid chromatography-tandem mass spectrometry (LC-MS/MS) to calculate the ubiquitination ratio of each sample by dividing the reporter intensity of ubiquitinated proteins by the reporter intensity of total protein (see Table S8). As expected, the accumulation of ubiquitinylated proteins was highest in epimastigotes treated with bortezomib (2.7-fold higher than in the DMSO-treated control), which is known to inhibit all three catalytic activities of the proteasome (Fig. 3). […] Similarly, ubiquitinated proteins accumulated to levels 1.9-fold higher in compound 1-treated parasites compared to those recovered from DMSO-treated control cells.
Controls were incubated in the presence of diluent (DMSO). Cells were harvested by centrifugation (1,912 × g, 15 min, 4°C) and washed with ice-cold PBS (1,912 × g, 5 min, 4°C); finally, the cell pellets were resuspended in 1.5 ml of ice-cold lysis buffer (1 mM EDTA, 1 mM DTT, 100 μM TLCK, and 1× Roche EDTA-free cOmplete protease inhibitor cocktail in 50 mM potassium phosphate buffer [pH 7.4]). Cell suspensions were submitted to three freeze-thaw cycles in a dry ice/ethanol bath to biologically inactivate the parasites and then lysed using a OneShot cell disruptor (Constant Systems) at 30 kpsi.
Cell lysates were centrifuged (100,000 × g, 20 min, 4°C), supernatants were collected, and the protein concentrations were determined by using a standard Bio-Rad protein assay. […]

CYP51 = test system: CYP51; set-up: method as in PMID 25740547; conditions: cited from earlier work
HepG2 cells = assay: HepG2 drug sensitivity assay (resazurin); type: cell-based; conditions: Homo sapiens; Mammalian HepG2; 72 h; weighted mean, n ≥ 3; read-out: Mean compound 1 EC50 ± SD
Protocol: L. donovani promastigote ([35]), axenic amastigote ([25]), and T. brucei bloodstream form ([36]) drug sensitivity assays were carried out as previously described. HepG2 monolayers were washed twice in PBS, detached with 0.05% trypsin/EDTA, and then diluted with fully supplemented MEM growth medium. Cells were pelleted at 80 × g for 5 min and resuspended in fully supplemented growth medium. Cells were seeded into 96-well plates (5 × 10^4/well) and allowed to adhere prior to exposure to test compounds. Plates were incubated at 37°C in the presence of 5% CO2 for 72 h. After incubation, resazurin (20 μl of a 2.5-mg/ml^−1 stock solution) was added to each well, followed by incubation for a further 2 h prior to fluorescence being read as described above.

## COc1ccc(NS(=O)(=O)c2cc(-c3cc(C)n[nH]3)ccc2C)cc1OC [Compound 1]
[1]
  accumulation of ubiquitinated proteins versus DMSO-treated control: 1.9 fold
CYP51
  CYP51 pIC50: 4.4
HepG2 cells
  EC50: 23 ± 3 µM
